What was measured:
[1] = test system: C. elegans
Procedure: (§1) Measurement of Reactive Oxygen Species. Superoxide concentration was measured by dihydroethidium (DHE). Black clear bottom 96 well plates were seeded with about 5000 HEK293 tau aggregate-negative (control) and aggregate-positive model cells per well and about 20000 SH-SY5Y cells (the NRF2 knockdown of both cell lines were also seeded). […] Fluorescence was measured by Spectramax Gemini XPS plate reader (Molecular Devices, Sunnyvale, Calif.) at 370 nm excitation and 420 nm emission wavelengths. […] Equal number of animals were transferred to a black bottom 96 well plate and fluorescence was measured same as above.

[2] = test system: SH-SY5Y cells; conditions: 72 hours
Procedure: Mitochondrial mass was measured by staining the cells with Mito tracker deep red followed by flow cytometric analysis. […] DNA copy number of mitochondria was calculated by amplification of ND5 or m-RNR, as mitochondrial genes, relative to LPL as a nucleus specific DNA sequence. Relative expression values were normalized to untreated cells.
Several parameters directly linked to intact mitochondria itself, namely mitochondrial mass, mtDNA copy number (as representatives of mitochondrial biogenesis), mitochondrial membrane potential (reporter of mitochondrial function) and ATP level as a signature of energetics (FIGS. 11A to 11E) were measured. […] Isoniazid (20 μM) and resveratrol (20 μM) were used as negative and positive controls respectively). Mitochondrial mass was also evaluated in parallel by measuring the relative amount of mitochondrial to nuclear DNA. Two different set of primers (ND5 and m-RNR) were used to amplify mt-DNA in qPCR reactions (FIG. 11B).
(§2) The mitochondrial membrane potential was measured as an indicator of cellular energetics and ATP content.

[3] = test system: SH-SY5Y cells; assay: Protein carbonyl assay (2,4-DNPH) in H2O2-stressed cells; assay type: cell-based, human; conditions: 100 μM H2O2 24 h, 10 and 25 μM compound
Procedure: To generate intracellular aldehydes, the inventors treated human neuroblastoma cell line (SH-SY5Y) with 100 μM hydrogen peroxide (H2O2) for 24 h. Carbonyl groups were quantified using 2,4-DNPH (dinitrophenylhydrazine) assay.
Protein carbonyl Assay. Protein carbonyls were measured using a commercially available kit (MAK094; Sigma-Aldrich, St. Louis, Mo.). Cells were first lysed in lysis buffer provided by the kit.
Following centrifugation, 100 μL of supernatant was added to 10 μL of 10% […] solution, was incubated at room temperature for 10 min and re-centrifuged to remove interfering nucleic acids. Carbonyl content of supernatant was determined by adding 2, 4-dinatrophenylhydrazine followed by detection of dinitrophenyl hydrazine adduct at 375 nm in a 96 well plate reader. The protein content of each sample was determined using a bicinchoninic acid (BCA) assay, Thermo Fischer, Waltham, Mass.).

[4] = test system: SH-SY5Y cells; conditions: 0, 10, 20 μM, 3 days
Procedure: Cells were stained by TMRE to tag active mitochondria. Florescence signal was quantified by Flow Jo software. […] ATP levels were measured by bioluminescent detection of luciferase activity. All data are presented normalized to cell number.
as §2

[5] = test system: Nrf2 knockdown SH-SY5Y cells; conditions: Nrf2 siRNA knockdown, 24 h
Procedure: GSH is regulated by the rate-limiting enzyme GCL consisted of GCLc and GCLm subunits. […] The inventors then used extracellular lactate dehydrogenase cytotoxicity assay to measure cell survival.
Cell Viability and Cytotoxicity Assay. Cell growth was analyzed using the MTT cell viability assay. Briefly, at the end of incubation/treatment, MTT reagent was diluted in culture medium and aliquoted into each well. After incubation for 2 hours, the medium was aspirated and DMSO was aliquoted into each well to disrupt the cells and dissolve the intracellular MTT dyes. Absorbance was read at 570 nm wavelength in a 96-well plate reader. Cell toxicity was detected using a LDH cell toxicity assay kit (Promega, Fitchburg Wis.). This is a coupled enzymatic assay that detects a visible color signal initially described by Nachlas et. al. The reagent contained excess concentrations of lactate and NAD+as substrates to drive the LDH reaction and produce NADH. In the presence of diaphorase, NADH drives the enzyme-catalyzed conversion of iodonitro-tetrazolium violet to a red formazan product. Briefly, DMEM medium was withdrawn from each well of the plate after treatment and briefly centrifuged to get rid of floating cells or cell debris. […] The absorbance was read at 490 nm in a 96-well plate reader. […]

[6] = data not shown
[7] = test system: GSK3β and Tau; assay: p-GSK3β and p-Tau in Aβ (1-42) treated primary neurons; conditions: 1 μM, 24 hours
Procedure: Cells were transfected with tdTomato (red) plasmid to visualize structural and morphological changes of neurons. Nuclei were stained with DAPI (blue) scale bar=10 μm. […] Densitometry values were normalized using actin as an internal control.
Immunofluorescence assays were performed and the phosphorylation status of GSK3β and Tau proteins were analyzed in primary cells using pGSK3β (S9) and pTau (S396) antibodies. Primary cortical neurons were isolated from the cortex of 0 day pups, cultured for two weeks, and were transfected with tdTomato plasmid to visualize structural and morphological changes of neurons. […] At the end of the treatment cells were fixed and immunostained with respective antibodies.

[8] = test system: neuropeptide Y, synaptotagmin; conditions: data not shown
Text: Neuronal plasticity, defined as the brain's ability to form new neural connections, allows the neurons to compensate for injury and disease and to adjust their activities in response to new situations or changes in their environment.

[9] = target: Keap1-Nrf2 (Homo sapiens, UniProt Q14145); conditions: data not shown
[10] = test system: SH-SY5Y cells; conditions: Aβ (1-42) 20 μM, 24 hour; 46% with Aβ alone
Procedure: Densitometry values were normalized against actin.
After 24 hour treatment, cell viability was measured using the cell titer glow luminescence assay.

[11] = test system: HEK293 tau aggregate-negative and aggregate-positive cells
Procedure: The inventors first measured the cell proliferation to evaluate the stress caused by expression of tau fibrils in aggregate-positive and negative cells (FIG. 6A). […] The inventors also measured the concentration of superoxide ions (O2-), a detrimental byproduct of oxidative phosphorylation, as an ROS representative. […] The inventors next measured expression of Nrf2 and HO-1 in the same cells (FIG. 6C). […] Aggregate-positive and -negative KD cells were treated with 200 μM H2O2 for 24 h. Cytotoxicity was measured as release of LDH.
as §1

Sequence of Keap1-Nrf2 (Q14145 whole entry): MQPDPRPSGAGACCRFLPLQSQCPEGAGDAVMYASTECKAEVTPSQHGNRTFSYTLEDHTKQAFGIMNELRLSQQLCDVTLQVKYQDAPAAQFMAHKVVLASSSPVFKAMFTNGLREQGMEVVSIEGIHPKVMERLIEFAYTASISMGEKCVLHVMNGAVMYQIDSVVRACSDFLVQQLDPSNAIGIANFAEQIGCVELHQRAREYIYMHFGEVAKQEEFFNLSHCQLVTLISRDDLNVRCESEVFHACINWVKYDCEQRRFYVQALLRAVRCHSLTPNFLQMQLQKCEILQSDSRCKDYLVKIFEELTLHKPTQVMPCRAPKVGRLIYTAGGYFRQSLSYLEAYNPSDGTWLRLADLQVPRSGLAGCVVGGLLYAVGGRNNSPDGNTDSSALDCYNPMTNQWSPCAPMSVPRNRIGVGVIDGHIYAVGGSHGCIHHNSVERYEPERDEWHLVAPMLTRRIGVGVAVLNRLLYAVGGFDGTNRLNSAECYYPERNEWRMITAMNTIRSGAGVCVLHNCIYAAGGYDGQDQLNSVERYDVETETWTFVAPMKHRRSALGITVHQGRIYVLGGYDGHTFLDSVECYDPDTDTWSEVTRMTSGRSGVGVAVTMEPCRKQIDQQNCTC

NNc1nncc2ccccc12 [Hydralazine]
superoxide concentration in N2 worms [1]: decreased superoxide concentration | mitochondrial mass ([2]; 0, 10, 20 μM): sharp increase in mitochondrial mass | increase in mt-DNA copy number ([2]; 20 μM): more than 50% | protein carbonyls [3]: significantly reduced the carbonyl level | protein carbonyls ([3]; listed as hydralazine): reduced protein carbonyls significantly | total ATP content [4]: elevated ATP level in a concentration dependent manner | protection from H2O2-induced cytotoxicity in Nrf2 knockdown cells (LDH) [5]: no protection | pro-oxidant environment (DCFH-DA intensity) [6]: does not create a mild pro-oxidant environment | pGSK3β (S9) in primary cells [7]: marked increase | pTau in primary cells [7]: reduced level of pTau | increase of expression of neuropeptide Y [8]: 3 fold | increase of expression of synaptotagmin [8]: ~2.5 fold | direct binding and interruption of Keap1-Nrf2 interaction [9]: ruled out the direct binding hypothesis | cells surviving Aβ (1-42) peptide treatment [10]: 70-80% | concentration of O2− ions in aggregate-positive KD cells ([11]; Nrf2 knockdown): No significant change | concentration of superoxide ([11]; aggregate-positive and -negative cells, 24 h): decreased in a dose-dependent manner

From patent publication US20190298717A1 (BOARD OF REGENTS, THE UNIVERSITY OF TEXAS SYSTEM, priority 2016, published 2019)
